Blank lines part the entries; values can stand above or below the compound they belong to.
Columns and labels:
MRSA = experiment: Biofilm inhibition, crystal violet assay; format: cell-based, methicillin-resistant S. aureus; conditions: for biofilm inhibition activity (in words) / inhibition at 200 µM / IC50: MRSA; for inhibition at 200 µM / IC50: Staphylococcus aureus; for inhibition at 200 µM: read-out: % Inhibition of biofilm formation; for IC50: concentration that inhibits 50% of biofilm formation
Procedure: (§1) Procedure to Determine the Inhibitory Effect of Test Compounds.
(§2) Inhibition assays were performed by taking an overnight culture of bacterial strain and subculturing it at an OD600 of 0.01 into the medium. Stock solutions of predetermined concentrations of the test compound were then made in the medium. These stock solutions were aliquoted (100 μL) into the wells of the 96-well PVC microtiter plate. Sample plates were then wrapped in GLAD Press n'Seal® followed by an incubation under stationary conditions for 24 h at 37° C. After incubation, the medium was discarded from the wells and the plates were washed thoroughly with water. Plates were then stained with 100 μL of 0.1% solution of crystal violet (CV) and then incubated at ambient temperature for 30 min. Plates were washed with water again and the remaining stain was solubilized with 200 μL of 95% ethanol. A sample of 125 μL of solubilized CV stain from each well was transferred to the corresponding wells of a polystyrene microtiter dish. Biofilm inhibition was quantitated by measuring the OD540 of each well in which a negative control lane wherein no biofilm was formed served as a background and was subtracted out.

[1] = tested on: S. aureus strain ATCC 29213; experiment: Biofilm inhibition, crystal violet assay; format: cell-based; conditions: for biofilm inhibition activity (in words): 29213, 200 μM; for IC50: Staphylococcus aureus, ATCC29213, S. aureus ATCC 29213
Procedure: (§3) Given the potency of our lead compounds toward inhibiting MRSA biofilms, we next explored their activity against various other S. aureus strains. […] IC50 values were determined for each compound against each of the S. aureus strains.
as §1, §2

R. salexigens [2] = experiment: Biofilm inhibition, crystal violet assay; format: cell-based, Rhodospirillum salexigens; conditions: 200 μM
Procedure: as §1, §2

R. salexigens [3] = conditions: reported by Yamada et al.; cited from earlier work
VRE = experiment: Biofilm inhibition, crystal violet assay; format: cell-based, vancomycin-resistant Enterococcus faecium; conditions: 200 μM
Procedure: as §1, §2

E. coli = experiment: Biofilm inhibition, crystal violet assay; format: cell-based; conditions: for inhibition at 200 µM / IC50: Escherichia coli; for inhibition at 200 µM: read-out: % Inhibition of biofilm formation; for IC50: concentration that inhibits 50% of biofilm formation
Procedure: as §1, §2

S. epidermidis = experiment: Biofilm inhibition, crystal violet assay; format: cell-based; conditions: 200 μM
Procedure: as §1, §2

[4] = tested on: red blood cell (difibrinated sheep blood); experiment: Red blood cell hemolysis assay; format: cell-based; conditions: up to the highest concentration tested (1.2 mM)
Procedure: This was assessed using a red blood cell hemolysis assay using difibrinated sheep blood.
Red Blood Cell Hemolysis Assay.
Hemolysis assays were performed on mechanically difibrinated sheep blood (Hemostat Labs: DSB100). 1.5 mL of blood was placed into a microcentrifuge tube and centrifuged at 10000 rpm for ten minutes. The supernatant was removed and then the cells were resuspended with 1 mL of phosphate-buffered saline (PBS). The suspension was centrifuged, the supernatant was removed and cells resuspended two more times. The final cell suspension was then diluted tenfold. Test compound solutions were made in PBS in small culture tubes and then added to aliquots of the tenfold suspension dilution. PBS alone was used as a negative control and as a zero hemolysis marker whereas a 1% Triton X sample was used as a positive control and the 100% lysis marker. Samples were then placed in an incubator at 37° C. while being shaken at 200 rpm for one hour. After one hour, the samples were transferred to microcentrifuge tubes and then centrifuged at 10000 rpm for ten minutes. The resulting supernatant was diluted by a factor of 40 in distilled water. The absorbance of the supernatant was measured with a UV spectrometer at a 540 nm wavelength.

MDRAB = experiment: Biofilm inhibition, crystal violet assay; format: cell-based, multi-drug resistant Acinetobacter baumannii; conditions: 200 μM
Procedure: as §1, §2

[5] = tested on: S. aureus strain ATCC 29740; experiment: Biofilm inhibition, crystal violet assay; format: cell-based; conditions: Staphylococcus aureus, ATCC29740; S. aureus ATCC 29740
Procedure: as §3, §1, §2

[6] = tested on: S. aureus strain ATCC 25923; experiment: Biofilm inhibition, crystal violet assay; format: cell-based; conditions: Staphylococcus aureus, ATCC25923; S. aureus ATCC 25923
Procedure: as §3, §1, §2

melting point: 142 to 145 °C
SMILES: CC(C)CCC[C@@H](C)C1CCC2[C@@H]3CC=C4C[C@@H](OC(=O)N5CCc6ccccc65)CC[C@]4(C)[C@H]3CC[C@]12C (stereo partly shown)

melting point: 135 to 139 °C
SMILES: CC(C)CCC[C@@H](C)C1CCC2[C@@H]3CC=C4C[C@@H](OC(=O)NCCc5ccc(N)cc5)CC[C@]4(C)[C@H]3CC[C@]12C (stereo partly shown)

SMILES: COC1CC(C)CCC1C(C)C (single isomer, unassigned; (-)) [(−)-menthol methyl ether, reference compound]
biofilm inhibition activity (in words) (MRSA; 200 μM): completely inactive
biofilm inhibition activity (in words) [1]: completely inactive

SMILES: CC1CCC(C(C)C)C(O)C1 (single isomer, unassigned; (-)) [(−)-menthol, reference compound]
biofilm inhibition activity (in words) (MRSA; 200 μM): completely inactive
biofilm inhibition activity (in words) [1]: completely inactive

SMILES: CCOC(=O)NCCc1ccccc1 [Compound 2d, ethyl N-(2-phenethyl) carbamate]
% Inhibition of biofilm formation (MRSA; 200 μM): 68.1%
% Inhibition of biofilm formation (R. salexigens [2]): 59.7%
antibiofilm activity reported in the literature (R. salexigens [3]): moderate antibiofilm activity
% Inhibition of biofilm formation (VRE): 80.2%
% Inhibition of biofilm formation (E. coli; 200 μM): 40.8%
% Inhibition of biofilm formation (S. epidermidis): 63.1%
red blood cell lysis [4]: no red blood cell lysis
% Inhibition of biofilm formation (MDRAB): 52.0%

IC50 (E. coli): 28.3 µM
SMILES: CC(C)[C@@H]1CC[C@@H](C)C[C@H]1OC(=O)NCCn1nccn1 [Compound 5a, (1R,2S,5R)-2-isopropyl-5-methylcyclohexyl 2-(2H-1,2,3-triazol-2-yl)ethylcarbamate]
inhibition at 200 µM (E. coli; 200 μM): > 80%

IC50 (MRSA): 49.8 µM
IC50 [1]: 21.2 µM
IC50 [5]: 24.3 µM
IC50 [6]: 71.9 µM
SMILES: CC(C)[C@@H]1CC[C@@H](C)C[C@H]1OC(=O)NCCc1ccc(N)cc1 [Compound 8a, (1R,2S,5R)-2-isopropyl-5-methylcyclohexyl 4-aminophenethylcarbamate]
inhibition at 200 µM (MRSA; 200 μM): > 90%
red blood cell lysis [4]: no red blood cell lysis

IC50 (MRSA): 4.87 µM
IC50 (E. coli): 34.6 µM
IC50 [1]: 124 µM
IC50 [5]: 82.2 µM
IC50 [6]: 19.7 µM
melting point: 59 to 63 °C
SMILES: CC(C)[C@@H]1CC[C@@H](C)C[C@H]1OC(=O)NCCc1ccccn1 [Compound 9a, (1R,2S,5R)-2-isopropyl-5-methylcyclohexyl 2-(pyridin-2-yl)ethylcarbamate]
inhibition at 200 µM (MRSA; 200 μM): > 90%
inhibition at 200 µM (E. coli; 200 μM): > 80%
red blood cell lysis [4]: no red blood cell lysis

SMILES: CC(C)[C@H]1CC[C@H](C)C[C@@H]1OC(=O)NCCc1ccccn1 [Compound 9k, (1S,2R,5S)-2-isopropyl-5-methylcyclohexyl 2-(pyridin-2-yl)ethylcarbamate]
biofilm inhibition activity (in words) (MRSA; 200 μM): identical antibiofilm properties as their enantiomers
biofilm inhibition activity (in words) [1]: identical antibiofilm properties as their enantiomers
melting point: 57 to 59 °C

Source: patent US8884022B2, “Inhibition of bacterial biofilms with aryl carbamates” (North Carolina State University, priority 2010, dated 2014)
